Molecules are shown by their SMILES. Where only a bound is given, the exact number is not on record here.

Chain of human VPS34 (Q8NEB9 whole entry): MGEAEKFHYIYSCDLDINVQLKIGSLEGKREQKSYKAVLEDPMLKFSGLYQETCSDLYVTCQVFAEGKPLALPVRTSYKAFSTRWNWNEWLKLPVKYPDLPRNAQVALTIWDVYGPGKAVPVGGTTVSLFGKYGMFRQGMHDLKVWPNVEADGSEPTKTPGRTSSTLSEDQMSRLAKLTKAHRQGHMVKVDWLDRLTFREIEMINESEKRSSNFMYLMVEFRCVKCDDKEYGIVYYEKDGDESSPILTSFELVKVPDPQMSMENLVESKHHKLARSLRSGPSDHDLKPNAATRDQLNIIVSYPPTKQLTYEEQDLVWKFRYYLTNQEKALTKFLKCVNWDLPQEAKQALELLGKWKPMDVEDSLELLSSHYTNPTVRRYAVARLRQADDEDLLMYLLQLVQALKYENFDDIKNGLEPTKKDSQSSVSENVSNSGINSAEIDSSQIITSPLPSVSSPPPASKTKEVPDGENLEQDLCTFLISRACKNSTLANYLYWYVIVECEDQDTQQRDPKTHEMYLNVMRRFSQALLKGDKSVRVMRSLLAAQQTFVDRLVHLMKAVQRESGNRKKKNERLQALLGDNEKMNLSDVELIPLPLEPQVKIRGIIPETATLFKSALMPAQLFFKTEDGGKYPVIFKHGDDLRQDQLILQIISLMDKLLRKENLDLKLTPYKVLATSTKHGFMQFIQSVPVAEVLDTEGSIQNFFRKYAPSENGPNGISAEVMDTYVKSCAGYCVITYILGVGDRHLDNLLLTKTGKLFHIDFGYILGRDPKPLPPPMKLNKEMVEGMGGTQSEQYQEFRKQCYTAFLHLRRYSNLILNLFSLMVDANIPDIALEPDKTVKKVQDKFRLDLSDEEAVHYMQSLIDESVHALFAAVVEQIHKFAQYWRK

The first assay addresses human VPS34 (Homo sapiens (Human), UniProt Q8NEB9). Briefly: Human VPS34 enzyme assay (Adapta TR-FRET ADP detection). It counts as biochemical. Also on record: Percent Inhibition: dose or concentration left out as unconfirmed.
Conditions: not given
Background: TR-FRET usually uses a lanthanide donor and a delayed reading to cut background.
Regarding `Cc1ncc(-c2ccnc(NC(=O)C3CC3(F)F)c2)cc1NS(=O)(=O)c1ccc(F)cc1F` (single isomer, unassigned) [Compound I-267b, N-(5-{[(2,4-difluorophenyl)sulfonyl]amino}-6-methyl-3,4′-bipyridin-2′-yl)-2,2-difluorocyclopropanecarboxamide], the “Percent Inhibition” value was 94%. Consider `CC(=O)Nc1cc(-c2cnc(C)c(NS(=O)(=O)N3CC4CCC3C4)c2)ccn1` (stereo not drawn) [Compound I-445, N-{5-[(2-azabicyclo[2.2.1]hept-2-ylsulfonyl)amino]-6-methyl-3,4′-bipyridin-2′-yl}acetamide], for which the “Percent Inhibition” value was above 99%.

The same assay, now with this note: IC50 range class.
By IC50 is commonly meant the midpoint of a concentration-inhibition curve. The molecule `Cc1ncc(-c2ccnc(Nc3nc4ccccc4s3)c2)cc1NS(=O)(=O)c1ccc(F)cc1F` [Compound I-271, N-[2′-(1,3-benzothiazol-2-ylamino)-6-methyl-3,4′-bipyridin-5-yl]-2,4-difluorobenzenesulfonamide] had an IC50 of 0.01 to 0.05 µM. Same read-out and setting: under `CC(=O)Nc1cc(-c2ccnc(Nc3ccnc(C)n3)c2)cn2nccc12` [Compound I-450, N-(6-{2-[(2-methylpyrimidin-4-yl)amino]pyridin-4-yl}pyrazolo[1,5-a]pyridin-4-yl)acetamide] stands 0.01 to 0.05 µM; under `CC(=O)Nc1cc(-c2cnc(C)c(NS(=O)(=O)C3CC3)c2)ccn1` [Compound I-114, N-{5-[(cyclopropylsulfonyl)amino]-6-methyl-3,4′-bipyridin-2′-yl]acetamide], 0.01 to 0.05 µM.

Turning to `CC(=O)Nc1cc(-c2cnc(C)c(NS(=O)(=O)N3CCCCC3)c2)ccn1` [Compound I-214, N-{6-methyl-5-[(piperidin-1-ylsulfonyl)amino]-3,4′-bipyridin-2′-yl}acetamide], the IC50 was below 0.01 µM. The same measure, in the same setting: to `CC(=O)Nc1cc(-c2cnc(C)c(N(C)S(=O)(=O)C3CC3)c2)ccn1` [Compound I-212, N-{5-[(cyclopropylsulfonyl)(methyl)amino]-6-methyl-3,4′-bipyridin-2′-yl}acetamide] belongs 0.05 to 0.1 µM; to `Cc1c(-c2ccnc(Nc3ccncn3)c2)cnc(Cl)c1NS(=O)(=O)c1ccccc1` [Compound I-309, N-[6-chloro-4-methyl-2′-(pyrimidin-4-ylamino)-3,4′-bipyridin-5-yl]benzenesulfonamide], below 0.01 µM. The same measure, in the same setting: under `CC(=O)Nc1cc(-c2cnc(N)c(C(=O)N3CCCC3)c2)ccn1` [Compound I-15, N-[6-amino-5-(pyrrolidin-1-ylcarbonyl)-3,4′-bipyridin-2′-yl]acetamide] stands 0.01 to 0.05 µM; under `CC(=O)Nc1cc(-c2cnc(C)c(NS(=O)(=O)c3ccc(C)cc3)c2)ccn1` [Compound I-80, N-(6-methyl-5-{[(4-methylphenyl)sulfonyl]amino]-3,4′-bipyridin-2′-yl)acetamide], below 0.01 µM; under `CC(=O)Nc1cc(-c2cnc(Cl)c(NS(=O)(=O)c3ccc(Cl)cc3Cl)c2C)ccn1` [Compound I-243, N-(6-chloro-5-{[(2,4-dichlorophenyl)sulfonyl]amino}-4-methyl-3,4′-bipyridin-2′-yl)acetamide], 0.01 to 0.05 µM. Still for that read-out and setting: under `COc1nccc(Nc2cc(-c3cnc(N)c(C(=O)N(C)C45CC(C4)C5)c3)ccn2)n1` [Compound I-230, 6-amino-N-(bicyclo[1.1.1]pent-1-yl)-2′-((2-methoxypyrimidin-4-yl)amino)-N-methyl-[3,4′-bipyridine]-5-carboxamide] stands 0.01 to 0.05 µM.

As for `CC(=O)Nc1cc(-c2cnc(C)c(NS(=O)(=O)c3cc(C(F)(F)F)ccc3F)c2)ccn1` [Compound I-143, N-[5-({[2-fluoro-5-(trifluoromethyl)phenyl]sulfonyl}amino)-6-methyl-3,4′-bipyridin-2′-yl]acetamide], the IC50 is below 0.01 µM.

In turn, `Cc1nccc(Nc2cc(-c3cnc(N(C)C)c(C(=O)N(C)C45CC(C4)C5)c3)ccn2)n1` [Compound I-306, N-(bicyclo[1.1.1]pent-1-yl)-6-(dimethylamino)-N-methyl-2′-((2-methylpyrimidin-4-yl)amino)-3,4′-bipyridine-5-carboxamide] showed an IC50 of 0.01 to 0.05 µM. Consider `CC(=O)Nc1cc(-c2cnc(C)c(NS(=O)(=O)N(C)C)c2C)ccn1` [Compound I-260, N-{5-[(dimethylsulfamoyl)amino]-4,6-dimethyl-3,4′-bipyridin-2′-yl}acetamide], for which the IC50 was 0.01 to 0.05 µM. Regarding `Cc1nccc(Nc2cc(-c3cnc(C)c(Oc4ccccc4)c3)ccn2)n1` [Compound I-475, 6-methyl-N-(2-methylpyrimidin-4-yl)-5-phenoxy-3,4′-bipyridin-2′-amine], the half-maximal inhibitory concentration (IC50) is 0.01 to 0.05 µM. On the same count and under the same terms, to `CC(=O)Nc1cc(-c2cncc(S(=O)(=O)N(C)c3ccccc3)c2)ccn1` [Compound I-365, N-{5-[methyl(phenyl)sulfamoyl]-3,4′-bipyridin-2′-yl}acetamide] belongs 0.01 to 0.05 µM; to `Cc1c(-c2ccnc(Nc3ccnc(-c4ccccc4)n3)c2)cnc(Cl)c1NS(=O)(=O)c1ccc(F)cc1F` [Compound I-264, N-{6-chloro-4-methyl-2′-[(2-phenylpyrimidin-4-yl)amino]-3,4′-bipyridin-5-yl}-2,4-difluorobenzenesulfonamide], below 0.01 µM; to `CNc1ncc(-c2ccnc(NC(C)=O)c2)cc1S(=O)(=O)Nc1ccc(F)cc1F` [Compound I-63, N-{5-[(2,4-difluorophenyl)sulfamoyl]-6-(methylamino)-3,4′-bipyridin-2′-yl}acetamide], below 0.01 µM.

In turn, `Cc1ncc(-c2ccnc(NC(=O)C3CC3(F)F)c2)cc1NS(=O)(=O)c1ccc(F)cc1F` (single isomer, unassigned) [Compound I-267b, N-(5-{[(2,4-difluorophenyl)sulfonyl]amino}-6-methyl-3,4′-bipyridin-2′-yl)-2,2-difluorocyclopropanecarboxamide] yielded an IC50 of 0.01 to 0.05 µM.

Molecule `CC(=O)Nc1cc(-c2cnc(N)c(N3CCCNS3(=O)=O)c2)ccn1` [Compound I-490, N-[6-amino-5-(1,1-dioxido-1,2,6-thiadiazinan-2-yl)-3,4′-bipyridin-2′-yl]acetamide] yielded an IC50 below 0.01 µM. The molecule `CC(=O)Nc1cc(-c2cc(OS(=O)(=O)N(C)C)c3ccnn3c2)ccn1` [Compound I-428, 6-(2-acetamidopyridin-4-yl)pyrazolo[1,5-a]pyridin-4-yl dimethylsulfamate] gave an IC50 below 0.01 µM.

For the molecule `CC(=O)Nc1cc(-c2cnc(C)c(N3CCCS3(=O)=O)c2)ccn1` [Compound I-88, N-[5-(1,1-dioxidoisothiazolidin-2-yl)-6-methyl-3,4′-bipyridin-2′-yl]acetamide], the IC50 lay in the range of 0.01 to 0.05 µM. Still for that read-out and setting: under `Cc1nccc(Nc2cc(-c3cnc(Cl)c(N(C)C)c3C)ccn2)n1` [Compound I-314, 6-chloro-N5,N5,4-trimethyl-N2′-(2-methylpyrimidin-4-yl)-3,4′-bipyridine-2′,5-diamine] stands 0.01 to 0.05 µM; under `COc1ncc(-c2ccnc(NC(C)=O)c2)cc1C(=O)N(C)c1ccc(F)cc1F` [Compound I-423, 2′-aceramido-N-(2,4-difluorophenyl)-6-methoxy-N-methyl-3,4′-bipyridine-5-carboxamide], 0.01 to 0.05 µM; under `CC(=O)Nc1cc(-c2cnc(C)c(NS(=O)(=O)c3ccccc3)c2)ccn1` [Compound I-84, N-{6-methyl-5-[(phenylsulfonyl)amino]-3,4′-bipyridin-2′-yl}acetamide], below 0.01 µM.

In turn, `CNS(=O)(=O)Nc1cc(-c2ccnc(NC(C)=O)c2)cnc1C` [Compound I-455, N-{6-methyl-5-[(methylsulfamoyl)amino]-3,4′-bipyridin-2′-yl}acetamide] came in with an IC50 of 0.01 to 0.05 µM. Still for that read-out and setting: to `Cc1nccc(Nc2cc(-c3cnc(Cl)c(NS(=O)(=O)c4ccc(F)cc4F)c3C)c(F)cn2)n1` [Compound I-294, N-{6-chloro-5′-fluoro-4-methyl-2′-[(2-methylpyrimidin-4-yl)amino]-3,4′-bipyridin-5-yl}-2,4-difluorobenzenesulfonamide] belongs below 0.01 µM; to `CC(=O)Nc1cc(-c2cncc(NC(=O)c3ccc(F)cc3F)c2)ccn1` [Compound I-419, N-(2′-acetamido-3,4′-bipyridin-5-yl)-2,4-difluorobenzamide], above 0.1 µM; to `CC(=O)Nc1cc(-c2cnc(Cl)c(NS(=O)(=O)c3cc(F)ccc3F)c2C)ccn1` [Compound I-227, N-(6-chloro-5-{[(2,5-difluorophenyl)sulfonyl]amino)-4-methyl-3,4′-bipyridin-2′-yl)acetamide], 0.01 to 0.05 µM.

With `CNc1ncc(-c2ccnc(NC(C)=O)c2)cc1C(=O)N(C)C12CC(C1)C2` [Compound I-449, 2′-acetamido-N-(bicyclo[1.1.1]pent-1-yl)-N-methyl-6-(methylamino)-3,4′-bipyridine-5-carboxamide], the IC50 was in the range of 0.01 to 0.05 µM.

In the case of `Cc1ncc(-c2ccnc(Nc3nc4ccccc4o3)c2)cc1NS(=O)(=O)c1ccc(F)cc1F` [Compound I-233, N-[2′-(1,3-benzoxazol-2-ylamino)-6-methyl-3,4′-bipyridin-5-yl}2,4-difluorobenzenesulfonamide], the IC50 is 0.01 to 0.05 µM. Same read-out and setting: under `Cc1ncc(-c2ccnc(NC(=O)C3CC3(F)F)c2)cc1NS(=O)(=O)N(C)C` (stereo not drawn) [Compound I-244, N-{5-[(dimethylsulfamoyl)amino]-6-methyl-3,4′-bipyridin-2′-yl}-2,2-difluorocyclopropanecarboxamide] stands 0.01 to 0.05 µM.

Turning to `Cc1nccc(Nc2cc(-c3cnc(C)c(C(=O)N(C)c4ccc(F)cc4F)c3)ccn2)n1` [Compound I-346, N-(2,4-difluorophenyl)-N,6-dimethyl-2′-[(2-methylpyrimidin-4-yl)amino]-3,4′-bipyridine-5-carboxamide], the IC50 lay within 0.01 to 0.05 µM. The same measure, in the same setting: under `Cc1nccc(Nc2cc(-c3cncc(C(=O)N(C)C45CC(C4)C5)c3)ccn2)n1` [Compound I-234, N-(bicyclo[1.1.1]pent-1-yl)-N-methyl-2′-[(2-methylpyrimidin-4-yl)amino]-3,4′-bipyridine-5-carboxamide] stands 0.01 to 0.05 µM. The same measure, in the same setting: to `Cc1cnc(NC(=O)C2CC2)cc1-c1cnc(C)c(NS(=O)(=O)c2ccc(F)cc2F)c1` [Compound I-4, N-(5-{[(2,4-difluorophenyl)sulfonyl]amino}-5′,6-dimethyl-3,4′-bipyridin-2′-yl)cyclopropanecarboxamide] belongs 0.01 to 0.05 µM. Same read-out and setting: under `CC(=O)Nc1cc(-c2cnc(C)c(NS(=O)(=O)N3CC4CCC3C4)c2)ccn1` (stereo not drawn) [Compound I-445, N-{5-[(2-azabicyclo[2.2.1]hept-2-ylsulfonyl)amino]-6-methyl-3,4′-bipyridin-2′-yl}acetamide] stands 0.01 to 0.05 µM. On to `CC(=O)Nc1cc(-c2cncc(NS(=O)(=O)N(C)C)c2)ccn1` [Compound I-348, N-{5-[(dimethylsulfamoyl)amino]-3,4′-bipyridin-2′-yl}acetamide], for which the IC50 was 0.01 to 0.05 µM. Still for that read-out and setting: under `CC(=O)Nc1cc(-c2cnc(C)c(N(C)C(=O)c3ccc(F)cc3F)c2)ccn1` [Compound I-398, N-(2′-acetamido-6-methyl-3,4′-bipyridin-5-yl)-2,4-difluoro-N-methylbenzamide] stands above 0.1 µM.

The record behind these values is US9751854B2 (Millennium Pharmaceuticals, Inc., priority 2014, dated 2017).
